The results in this text go back to US7709514B2, “Therapeutic molecules and methods-1” (Cortical Pty Ltd, priority 2002, dated 2010).

Data set [1] deals with IL-1-induced COX-2 expression. Put plainly: IL-1-induced COX-2 expression in S112 human dermal fibroblasts (MIF-dependent bioassay). The class given is cell-based. Particulars: Homo sapiens, Fibroblast; for inhibition at 50 µM: read-out: % inhibition of IL-1-induced COX-2 expression; for inhibition at 25 µM: compound 25 μM. As to the method:
The activity of compounds was studied in a bioassay utilising MIF-dependent activation of human dermal fibroblasts. […] IL-1-induced COX-2 expression is therefore a MIF-dependent event. […] Prior to experimentation, cells were seeded at 10^5 cells/ml in RPMI/0.1% BSA for 18 hours. […] After 6 hours, cells were collected and intracellular COX-2 protein determined by permeabilisation flow cytometry. […] Cellular fluorescence was determined using a flow cytometer. At least 5000 events were counted for each reading, each of which was performed in duplicate, and the results expressed in mean fluorescence intensity (MFI) after subtraction of negative control-labelled cell fluorescence. The effect of each compound was determined by subtracting the IL-1+compound-treated cell MFI from the IL-1-treated cell (control) MFI and expressed as % inhibition. In each case the % inhibition of IL-1-induced COX-2 expression is expressed as the mean, or mean±SEM where results are available from multiple experiments.

Data set [2] concerns antigen-specific T cell activation. The experiment in a line: antigen-specific (mBSA) activation of splenic T lymphocytes, 3H-thymidine incorporation. Type of data set: cell-based, mice. Particulars: Mus musculus, T-cell, read-out: EC50, inhibition of T cell activation. As to the method:
C57BL6/J male mice, aged 7-10 weeks old, were immunised with 200 μg of methylated bovine serum albumin (mBSA) dissolved in 20 μL of saline, emulsified in 200 μL of Freund's complete adjuvant (FCA) by subcutaneous injection. Seven (7) days later mice received a booster immunisation with 100 μg mBSA in 10 μL saline plus 100 μL FCA by subcutaneous injection. After a further seven (7) days mice were killed and spleens collected aseptically into Hanks buffered saline solution (HBSS). A single cell suspension was prepared in Petri dishes by flushing DMEM using a 26G needle and 2 mL syringe. The resulting cell suspension was centrifuged for 5-7 minutes and supernatant discarded. Erythrocytes were lysed using a solution containing 0.579% NH4Cl, 0.000037% EDTA, and 0.1% NaHCO3 in a 37° C. water bath. Tubes were then filled with DMEM and centrifuged for 5-7 minutes. The cell-containing pellet was then resuspended in DMEM containing 5% fetal calf serum TICS) and 0.05% 2-mercapto-ethanol at a concentration of 1×10^6 cells/mL and plated at 1×10^5 cells/well in 96-well plastic tissue culture plates. Test substances (compound or vehicle) were added and incubated for 1 hour in a 37° C., 5% CO2 incubator. The specific stimulating antigen, mBSA, was then added at 10-50 μg/ml and plates incubated for 30 hours in a 37° C., 5% CO2 incubator. Tritiated ^3H-thymidine was then added at a concentration of 0.5 μCi/well for a further 18 hours. Cells were harvested on a Packard cell harvester, and the harvested material added to 750 μL/tube scintillation fluid. Scintillation counts were read on a Wallac beta-emission counter.
The concentration at which T cell activation was suppressed by 50% compared to vehicle-only-treated cells (EC50) was calculated using Prism® software. […] Further compounds were also tested for their ability to inhibit antigen-specific T cell activation as a marker of the inhibition of the cytokine or biological activity of MIF using this assay. Table 5 lists the EC50 for each compound in this assay, performed with concentrations of mBSA of either 50 or 10 μg/ml.

For data set [3], the system named is murine peritoneal macrophage nitric oxide production. The experiment in a line: inhibition of peritoneal macrophage nitric oxide release (Greiss assay). The class given is cell-based, mice. Particulars: Mus musculus, LPS 10 ng/ml and interferon-γ 10 units/ml, 24 hours, read-out: % Nitrite concentration inhibition from control. As to the method:
C57BL6/J male mice were injected intraperitoneally with 2 ml of thioglycollate. Five (5) days later peritoneal macrophages were collected by lavaging the peritoneum of anaesthetized mice with 3 ml of cold Hanks buffered saline solution. Cells from several mice were pooled, washed and re-suspended in DMEM supplemented with 5% FCS. Cells were plated in 96 well plastic tissue culture plates at 1×10^5 cells/well. Cells were treated with compound or vehicle for 1 hour in a 5% CO2 incubator at 37° C. Cells were then treated with LPS (10 ng/ml) and recombinant human interferon-γ (10 units/ml) and incubated for 24 hours. After 24 hours, 50 μl of supernatant from each well was carefully removed and transferred to ELISA plates. The concentration of nitrite in culture supernatants was measured by the Greiss assay (27). The results were defined as the percentage inhibition of nitrite concentration in compound-treated cell culture supernatants compared to that of vehicle-treated cells.

[4] abbreviates: compound 50 μM, S112 cells, IL-1 0.1 ng/ml, 6 hours.
Where [5] appears, read: S112 cells, IL-1 0.1 ng/ml, 6 hours.

Like-named read-outs stand apart in the source and are kept apart here.

Usually EC50 stands for the midpoint of the concentration-response curve. One may read the melting point as the temperature of the solid-liquid transition.

As to `Cc1ccc2[nH]c(=O)[nH]c2c1` [Compound 2, 5-Methylbenzimidazol-2-one], the melting point lay in the range of 300 to 302 °C. For the same molecule, the inhibition at 50 µM in data set [1] (6 h) was found to be 13%. In addition, in data set [2], the EC50 turned out to be 7.29 µM.
With `O=C(OCCOCCO)c1ccc2[nH]c(=O)[nH]c2c1` [Compound 6, 5[2(1-oxy-2-hydroxyethyl)ethyl]benzimidazol-2-one-5-carboxylate], the melting point is 227 to 228 °C. In addition, the inhibition at 50 µM in data set [1] (setting [4]) came out at 17.8%. The EC50 in data set [2] (mBSA 10 μg/ml) is 25.8 µM. Further, the EC50 in data set [2] (mBSA 50 μg/ml) was over 100 µM.
In the case of `COC(=O)c1ccc2[nH]c(=O)[nH]c2c1` [Compound 7, benzimidazol-2-one-5-methanoate], in data set [1] (setting [4]), the inhibition at 50 µM worked out at 16.7%. Besides, the values for the concentration giving a half-maximal response (EC50) in data set [2] (mBSA 10 μg/ml) and in data set [2] (mBSA 50 μg/ml) were 33.9 µM and 44.8 µM, respectively.
As for `CCOC(=O)c1ccc2[nH]c(=O)[nH]c2c1` [Compound 8], the inhibition at 50 µM in data set [1] (setting [4]) was determined as 19.9%. Besides, the EC50 in data set [2] (mBSA 10 μg/ml) was 25.4 µM; in data set [2] (mBSA 50 μg/ml), over 100 µM.
Take `COC(=O)C(CO)NC(=O)c1ccc2[nH]c(=O)[nH]c2c1` (stereo not drawn) [Compound 9, methyl 3-hydroxy-2-{[(2-oxo-2,3-dihydro-1H-1,3-benzimidazol-5-yl)carbonyl]amino}propanoate]: the inhibition at 50 µM in data set [1] (setting [4]) came out at 14.9%. In addition, the EC50 in data set [2] (mBSA 10 μg/ml) came to 77 µM; in data set [2] (mBSA 50 μg/ml), 61.9 µM.
With `O=C(NC(CO)C(=O)O)c1ccc2[nH]c(=O)[nH]c2c1` (stereo not drawn) [Compound 10, 3-hydroxy-2-{[(2-oxo-2,3-dihydro-1H-1,3-benzimidazol-5-yl)carbonyl]amino}propanoic acid], in data set [1] (setting [4]), the inhibition at 50 µM came out at 19.3%. For the same molecule, the figures for the EC50 in data set [2] (mBSA 10 μg/ml) and in data set [2] (mBSA 50 μg/ml) were over 100 µM and 77.5 µM, respectively.
Turning to `COC(=O)C(Cc1ccccc1)NC(=O)c1ccc2[nH]c(=O)[nH]c2c1` (stereo not drawn) [Compound 11, methyl 2-{[(2-oxo-2,3-dihydro-1H-1,3-benzimidazol-5-yl)carbonyl]amino}-3-phenyl propanoate], the inhibition at 50 µM in data set [1] (setting [4]) is 17.5%; in data set [3] (compound 50 μM), 28.1%. Moreover, the EC50 in data set [2] (mBSA 10 μg/ml) came out at 44.4 µM; in data set [2] (mBSA 50 μg/ml), 50.7 µM. Besides, the inhibition at 25 µM in data set [3] (compound 25 μM) came out at 3.1%. In data set [3] (compound 100 μM), the inhibition at 100 µM amounted to 65.5%.
Take `O=C(NC(Cc1ccccc1)C(=O)O)c1ccc2[nH]c(=O)[nH]c2c1` (stereo not drawn) [Compound 12, 2-{[(2-oxo-2,3-dihydro-1H-1,3-benzimidazol-5-yl)carbonyl]amino}-3-phenyl propanoic acid]: the inhibition at 50 µM in data set [1] (setting [4]) was 19.9%. Further, the values for the EC50 in data set [2] (mBSA 10 μg/ml) and in data set [2] (mBSA 50 μg/ml) were over 100 µM and 77.9 µM, respectively.
Turning to `CCCCCOC(=O)c1ccc2[nH]c(=S)[nH]c2c1` [Compound 15, Pentyl-benzimidazole-2-thioxo-5-carboxylate], the inhibition at 50 µM in data set [1] (setting [4]) was determined as 33.1%. Besides, the values for the EC50 in data set [2] (mBSA 10 μg/ml) and in data set [2] (mBSA 50 μg/ml) were 9.4 µM and 10.1 µM, respectively.
Take `CC(=O)OCC1OC(OC(=O)c2ccc3[nH]c(=O)[nH]c3c2)C(OC(C)=O)C(OC(C)=O)C1OC(C)=O` (stereo not drawn) [Compound 16, 3,4,5-tris(acetyloxy)-6-[(acetyloxy)methyl]tetrahydro-2H-pyran-2-yl-benzimidazole-2-one-5-carboxylate]: the EC50 in data set [2] (mBSA 10 μg/ml) was 23.8 µM; in data set [2] (mBSA 50 μg/ml) it was 26 µM.
As to `Cc1cc2[nH]c(=O)[nH]c2cc1Br` [Compound 17, 5-Bromo-6-methybenzimidazol-2-one], the inhibition at 50 µM in data set [1] (setting [4]) stood at 22.4%. The EC50 in data set [2] (mBSA 10 μg/ml) was determined as 2.91 µM; in data set [2] (mBSA 50 μg/ml), 10.7 µM.
For `Cc1cc2[nH]c(=O)[nH]c2cc1O` [Compound 18, 5-Hydroxy-6-methybenzimidazol-2-one], in data set [1] (setting [4]), the inhibition at 50 µM was 2.4%. In addition, the half-maximal effective concentration (EC50) worked out at 19.3 µM in data set [2] (mBSA 10 μg/ml) and 34 µM in data set [2] (mBSA 50 μg/ml).
Turning to `Cc1c(Br)c(Br)c2[nH]c(=O)[nH]c2c1Br` [Compound 20, 4,5,7-Tribromo-6-methylbenzimidazol-2-one], the inhibition at 25 µM in data set [1] (setting [5]) is 28.5%.
`Cc1cc2[nH]c(=O)[nH]c2cc1[N+](=O)[O-]` [Compound 22, 5-Methyl-6-nitrobenzimidazol-2-one]: the inhibition at 25 µM in data set [1] (setting [5]) turned out to be 30%. For the same molecule, the EC50 in data set [2] (mBSA 10 μg/ml) and in data set [2] (mBSA 50 μg/ml) was over 100 µM throughout.
Consider `Cc1cc2[nH]c(=O)[nH]c2cc1N` [Compound 23, 5-Amino-6-methylbenzimidazol-2-one], for which, in data set [1] (setting [4]), the inhibition at 50 µM is 8.5%.
As to `Cc1cc2[nH]c(=O)[nH]c2cc1NC(=O)CSc1ncccn1` [Compound 24], in data set [1] (setting [4]), the inhibition at 50 µM worked out at 30.3%.
Take `CCCCCSC(=O)c1ccc2[nH]c(=O)[nH]c2c1` [Compound 25, Pentyl-benzimidazol-2-one-5-carbothioate]: the EC50 in data set [2] (mBSA 10 μg/ml) and in data set [2] (mBSA 50 μg/ml) was over 100 µM each time.
In the case of `O=C(O)CCCC(=O)c1ccc2[nH]c(=O)[nH]c2c1` [Compound 26, 5-(benzimidazol-2(3H)-one-6-yl)-5-oxopentanoic acid], in data set [1] (setting [4]), the inhibition at 50 µM was determined as 9.8%. Besides, the EC50 is 10.2 µM in data set [2] (mBSA 10 μg/ml) and 2.31 µM in data set [2] (mBSA 50 μg/ml).
In the case of `CCCCCNS(=O)(=O)c1ccc2[nH]c(=O)[nH]c2c1` [Compound 27, 2(3H)-benzimidazolone-5-sulfonic acid pentyl amide], the melting point is 316 to 318 °C. The inhibition at 50 µM in data set [1] (setting [4]) was 37.4%. For the same molecule, the EC50 in data set [2] (mBSA 10 μg/ml) is 9.15 µM. Further, the EC50 in data set [2] (mBSA 50 μg/ml) is 1.29 µM.
For the molecule `CCCCCOS(=O)(=O)c1ccc2[nH]c(=O)[nH]c2c1` [Compound 28, 2(3H)-benzimidazolone-5-sulfonic acid pentyl ester], the EC50 in data set [2] (mBSA 10 μg/ml) amounted to 2.19 µM; in data set [2] (mBSA 50 μg/ml) it was 7.37 µM.
The molecule `CCCCNC(=N)c1ccc2[nH]c(=O)[nH]c2c1` [Compound 32, N-butyl-2-oxo-2,3-dihydro-1H-1,3-benzimidazole-5-carboximidamide] yielded a melting point of 168 °C. Moreover, the inhibition at 50 µM in data set [1] (setting [4]) came to 13.8%. In addition, the EC50 in data set [2] (mBSA 10 μg/ml) is over 100 µM. In addition, in data set [2] (mBSA 50 μg/ml), the EC50 is over 100 µM.
In turn, `CCCCCCC(=O)c1ccc2c(c1)CC(=O)O2` [Compound 33] returned a melting point of 64 to 67 °C. Further, the EC50 in data set [2] (mBSA 10 μg/ml) was 24.8 µM. Also, in data set [2] (mBSA 50 μg/ml), the EC50 is 14 µM.
In data set [1] (compound 10 μM, S112 cells, IL-1 0.1 ng/ml, 6 hours), `CCCCCc1ccc2[nH]c(=O)[nH]c2c1` [Compound 34, 5-Pentylbenzimidazol-2-one] showed an inhibition at 10 µM of 14.9%. Also, the results for the EC50 in data set [2] (mBSA 10 μg/ml) and in data set [2] (mBSA 50 μg/ml) were 13.5 µM and 49.9 µM, respectively.
